Assay results from patent publication US20190046446A1, “APO-E MODIFIED LIPID NANOPARTICLES FOR DRUG DELIVERY TO TARGETED TISSUES AND THERAPEUTIC METHODS” (Eriochem USA, LLC, priority 2016, published 2019).
Where “and” joins values, the source holds several entries; their conditions need not be identical. Identical values can stand only once. Like-named read-outs stand apart in the source and are kept apart here.

Experiments:
[1] = in vivo; cited from earlier work
[2] = tested on: A549 (lung cancer epithelial cells); experiment: In vitro cytotoxicity assay (MTS), A549; format: cell-based, human
Method: 50 μL of the cell suspensions were seeded in 96-well plates in duplicate with Dulbecco's basal medium plus 10% fetal bovine serum supplemented with 10% fetal bovine serum (FBS) for PC-3, and with DMEM/Ham's F12 medium containing 10% FBS, 1% 1-glutamine for A549 cell line. Both were maintained in culture for 24 hours. The cells were then treated with serial diluted concentrations of DCX starting from 100 nM and incubated for 48 hours. At the end of incubation, 20 μL/well of MTS/PMs solution (2 mL of MTS with 100 μL of PMS solution) were added. Then, plates were incubated at 37° C., 5% CO2 for 4 hours. […] The result allowed for conditions for evaluating the growth inhibition of the Nano+DCX and Nano+DCX+ApoE3 to be defined.
Absorbance values obtained from the in vitro cytotoxicity assay of DCX, Nano+DCX, and Nano+DCX+ApoE3 samples were plotted based on the DCX concentration employed, using OriginPro 8 software (ORIGINLAB Corporation, USA). The IC50 (nM) of each of the samples was determined at 50% of the maximum absorbance value obtained, corresponding to the value obtained for the growth control. The anti-proliferation effect shown on different cells with DCX, Nano+DCX, and Nano+DCX+ApoE3 decreased cell proliferation.

[3] = Liver accumulation of Docetaxel in rabbits; format: in vivo; details: iv, 2.5 mg/kg DCX
Method: In measuring the liver accumulation, the animals were randomly divided into four groups following the above plasma assay. The groups were as follows:
The livers of the rabbits were totally removed at 24 hours and 36 hours, then weighed, frozen and stored at […]. The rabbit liver samples were precipitated with acetonitrile, followed by solid phase extraction (SPE), evaporation and resuspension of the resulting extract in a solvent and then analyzed by injection into LC ESI MS/MS. The determinations were performed by liquid chromatography and mass spectrometry (using a Shimadzu UFLC XR liquid chromatograph coupled to a AB Sciex 3200 QTrap mass spectrometer).
Values are Media±SEM. (N=5).

New Zealand rabbits = experiment: Hepatic toxicity (GGT and GOT determination); format: in vivo; details: iv, DCX 2.5 mg/kg or equivalent, 24 hours after inoculation
Method: The experiment was carried out using New Zealand rabbits kept in facilities under controlled environmental conditions (temperature of 22° C.+3° C.; 12-hour light/dark cycle) and with free access to food and water. Acclimatization was performed for a minimum of 10 days prior to the start of the experiment. Each animal weighted approximately 2.8 kg and was distributed into a group of 5 animals each.
Formulations were administered intravenously (in marginal ear vein) into rabbits that had previously been intravenously injected with a combination of Ketamine-Xylazine-Acepromazine. Amounts of Gamma glutamil transaminase (GGT) and glutamic-oxaloacetic transaminase (GOT) were determined in plasma of the rabbits 24 hours after inoculation with the formulation. The results of each sample were statistically analyzed with ANOVA and Duncan Test using SPSS 11.0.

[4] = In vitro drug release by dialysis against human plasma; format: in vitro ADME; details: dialysis against 10% human plasma, 37° C., up to 72 hours
Method: Drug release kinetics were evaluated in vitro by comparing solutions containing:
The respective solution samples were placed in 12 KDa dialysis bags and dialyzed against a 10% V/V solution of human plasma for 72 hours at 37° C. in an orbital shaker with constant agitation at 60 rpm. Assays were then performed in triplicate, with samples taken from each solution at 0, 1, 2, 3, 6, 9, 24, 48, and 72 hours after dialysis initiation. […] The recovered organic phase was dried in a rotary evaporator, and the obtained dry material was resuspended in acetonitrile for further HPLC analysis.

CC(=O)O[C@@]12CO[C@@H]1C[C@H](O)[C@@]1(C)C(=O)[C@H](O)C3=C(C)[C@@H](OC(=O)[C@H](O)[C@@H](NC(=O)OC(C)(C)C)c4ccccc4)C[C@@](O)([C@@H](OC(=O)c4ccccc4)[C@H]21)C3(C)C [TAXOTERE, Docetaxel]
incidence of reactions of unpredictable acute toxicity [1]: 5-60% | IC50 ([2]; Homo sapiens, A549, 48 h, Normal Serum, 48 hours, read-out: IC50 in A549, individual tests): 8.75 nM | IC50 ([2]; Homo sapiens, A549, 48 h, Serum Free of Lipoprotein, 48 hours, read-out: IC50 in A549, individual tests): 25.5 nM | IC50 ([2]; Homo sapiens, A549, LP-FREE SERUM, Table 18, read-out: IC50 A549): 34 nM | IC50 ([2]; Homo sapiens, A549, NORMAL SERUM, Table 18, read-out: IC50 A549): 9 nM | IC50 ([2]; Homo sapiens, A549, Normal Serum, average of tests, read-out: IC50 in A549): 8.7 ± 0.7 nM | IC50 ([2]; Homo sapiens, A549, Serum Free of Lipoprotein, average of tests, read-out: IC50 in A549): 33.8 ± 3.2 nM | IC50 ([2]; Homo sapiens, A549, lung cancer cell cultures, without lipoproteins, read-out: IC50): 34 nM | Si A549 ([2]; LP-FREE SERUM, SI=IC50 (Vero)/IC50 (A549)): 4 | SI A549 ([2]; NORMAL SERUM, SI=IC50 (Vero)/IC50 (A549), listed as DCX): 16 | IC50 ([2]; Normal Serum, 48 hours, listed as DCX, read-out: IC50 in A549, individual tests): 6.65 nM and 9.6 nM and 9.9 nM | IC50 ([2]; Serum Free of Lipoprotein, 48 hours, listed as DCX, read-out: IC50 in A549, individual tests): 33 nM and 37.5 nM and 45.5 nM and 36.5 nM and 25 nM | times more toxic in the presence of lipoproteins ([2]; lung cancer cell cultures): 3.8 times | DCX Concentration in Liver ([3]; 24 hours): 446 ± 66 | DCX Concentration in Liver ([3]; 36 hours): 495 ± 126 | GGT concentration in plasma (New Zealand rabbits): No significant differences | GOT concentration in plasma (New Zealand rabbits): O significant differences | Docetaxel release, comparison between solutions [4]: released more decetaxel than the lipid nanoparticles
